Consider 6 compounds from ChEMBL document CHEMBL4373682, “Synergistic effect of tolfenamic acid and glycyrrhizic acid on TPA-induced skin inflammation in mice” (Medchemcomm, 2019).

Data set [1] concerns Mus musculus. Kind of data set: Antiinflammatory activity against TPA-induced ear edema in BALB/c mouse assessed as effect on weight of ear punches at 100 mg/kg, po administered 6 mins prior to TPA challenge and treated twice in 4 hrs and measured after 6 hrs post administration (reference value: 4.5 +/- 0.18 mg). Type of data set: functional.
Data set [2] concerns Mus musculus. Kind of data set: Antiinflammatory activity against TPA-induced ear edema in BALB/c mouse assessed as inhibition of ear edema at 50 mg/kg, po administered 6 mins prior to TPA challenge and treated twice in 4 hrs and measured after 6 hrs post administration relative to control. Type of data set: functional.
Data set [3] concerns Mus musculus. Kind of data set: Antiinflammatory activity against TPA-induced ear edema in BALB/c mouse assessed as inhibition of ear edema at 100 mg/kg, po administered 6 mins prior to TPA challenge and treated twice in 4 hrs and measured after 6 hrs post administration relative to control. Type of data set: functional.
The nature of data set [4]: Tmax in rat at 10 to 480 mg/kg, po. Particulars: in vivo. Type of data set: ADME, organism-based.

Consider `CC(=O)Oc1ccccc1C(=O)O` [ASPIRIN], for which, in the data set with Mus musculus [1], the Activity is recorded as 11.2 mg. With `CCc1cccc2c3c([nH]c12)C(CC)(CC(=O)O)OCC3` (stereo not given) [ETODOLAC], the Activity in the data set with Mus musculus [1] came to 11.1 mg. As for `CC1(C)[C@@H](O[C@H]2O[C@H](C(=O)O)[C@@H](O)[C@H](O)[C@H]2O[C@@H]2O[C@H](C(=O)O)[C@@H](O)[C@H](O)[C@H]2O)CC[C@]2(C)[C@H]3C(=O)C=C4[C@@H]5C[C@@](C)(C(=O)O)CC[C@]5(C)CC[C@@]4(C)[C@]3(C)CC[C@@H]12` [GLYCYRRHIZIN], in the data set on Mus musculus [1], the Activity is listed as 12.7 mg. In the data set with Mus musculus [2], the inhibition in vivo at 50 mg/kg is -5.41%. For the same compound, in the data set with Mus musculus [3], the inhibition in vivo at 100 mg/kg was -10.8%.

As to `CC(C)Cc1ccc(C(C)C(=O)O)cc1` (stereo not given) [IBUPROFEN], the Activity in the data set with Mus musculus [1] was 8.8 mg. Still for that read-out and setting: under `COc1ccc2cc([C@H](C)C(=O)O)ccc2c1` [NAPROXEN] stands 11.5 mg. Turning to `Cc1c(Cl)cccc1Nc1ccccc1C(=O)O` [TOLFENAMIC ACID], in data set [4], the Tmax lay within 2 to 3 h. Also, the inhibition in vivo at 50 mg/kg in the data set on Mus musculus [2] was determined as 35.1%. In the data set with Mus musculus [3], the inhibition in vivo at 100 mg/kg came out at 51.4%.

In general, inhibition in vivo refers to the drop in the measured response relative to a control, in per cent. As usually defined, the Tmax is the time from dosing to the highest level.
